According to patent US20060029555A1, “Compositions and methods for prevention of photoaging” (priority 2002, published 2006):

System: human elastin promoter
Experiment: Transgenic mouse model of photoaging: human elastin promoter/CAT reporter activity after solar simulating radiation
Assay type: in vivo, transgenic mice
Conditions: topical application to backs about fifteen minutes before 20 MEDs of SSR, three consecutive days; CAT activity 24 hours after third phototreatment, compared with vehicle alone
Experimental: These mice express human elastin promoter activity in a tissue-specific and developmentally regulated manner. […] In addition, quantitative data can be obtained after only a single exposure to ultraviolet radiation. […] The transgenic mouse is then exposed to solar radiation and human elastin promoter activity in the mouse is determined.
Approximately fifteen minutes after topical application, the mice are exposed to 20 human minimal erythema doses (MEDs) of solar simulating radiation (SSR). […] This procedure is repeated over three consecutive days.
Mice are then sacrificed and skin harvested for determination of CAT activity 24 hours after the third phototreatment. […]
To measure the expression of the human elastin promoter/CAT reporter gene construct in the skin of transgenic mice and in fibroblast cultures established from these animals, CAT activity is determined. […] The homogenates are centrifuged at 10,000 ×g for 15 minutes at 4° C. and the protein concentration in the supernatant determined by a commercial protein assay kit (Bio-Rad Laboratories, Richmond, Calif.). […] The acetylated and non-acetylated forms of radioactive chloramphenicol are separated by thin-layer chromatography and CAT activity is determined by the radioactivity in the acetylated forms as a percent of the total radioactivity in each sample.

Structure (SMILES): Cn1c(=O)c2c(ncn2C)n(C)c1=O [caffeine]
- protection against photoaging and other sun-damage (human elastin promoter activity, CAT activity in skin): provides protection against photoaging and other sun-damage such as sunburn
